{
  "source": "paper PMC10117725",
  "about": "“From an Hsp90 - binding protein to a peptide drug” (microLife, 2022)",
  "key": {"[1]": {"test_system": "F-actin levels in HaCaT cells", "assay": "F-actin measurement (ActinGreen 488 fluorescence) in HaCaT cells", "format": "cell-based, human", "settings": "35 µg/ml peptide (L15 20 µM, L13 30 µM), geldanamycin 5 µM; 1.5 h; ActinGreen 488 fluorescence relative to control", "method": "(§1) About 5 × 10^4 cells were seeded in black flat bottom 96 well cell culture microplate (Greiner, Germany) and incubated overnight. The cells were then incubated with peptides or geldanamycin for 1.5 h. After incubation, the cells were washed, permeabilised with 0.1% (v/v) Triton X-100 and stained with ActinGreen™ 488 ReadyProbes® (Thermo Fischer, Germany) for 30 min. After the staining, the cells were washed and measure for its fluorescence at Excitation/Emission: 495/518 nm (Luqman et al. [2020])."}, "[2]": {"target": "T1, Hsp90α (Homo sapiens, UniProt P07900)", "T1 construct": "purchased Abcam", "format": "binding", "settings": "dot blot, 2 µg blotted on membrane, 20 µg recombinant Hsp90α at 4°C overnight, α-Hsp90α immunodetection", "method": "Two µg of each peptide was blotted (dot blot) directly on PDV nitrocellulose membrane and blocked with ROTI®Block (Carl Roth, Germany). After washing, the membrane was then incubated with 20 μg of recombinant Hsp90α (Abcam)/Lpl1-his protein at 4°C overnight. In case of interaction studies with Hsp90α, α-Hsp90α (produced in mouse, Abcam) was used as the primary antibody and for interaction studies with Lpl1-his, Anti-6X His tag antibody (also produced in mouse, Sigma-Aldrich, Germany) was used. Alkaline phosphatase conjugated goat-α-mouse IgG (Sigma-Aldrich, Germany) served as the secondary antibody. Detection was done using BCIP®/NBT solution (Sigma, Germany). Lpl1-his was isolated and purified as described in our previous paper (Tribelli et al. [2020])."}, "[3]": {"test_system": "S. aureus Newman", "assay": "Galleria mellonella larvae infection model, S. aureus Newman", "format": "in vivo", "method": "(§2) Galleria mellonella larvae, purchased from Feeders & more GmbH, Germany, were sorted based on weight and used within one week. Ten larvae per group with weight average of 500 mg/larvae were injected with bacteria and/or peptides on its last proleg using a BD insulin syringe. The dosage used for the experiment were 60 mg/kg for peptides, 5 mg/kg of geldanamycin and 20 mg/kg for vancomycin. Each larva was injected with 10 µl of L15 (last left proleg) 1 h before administration of 10^6 cfu S. aureus (last right proleg). The larvae were maintained at 37°C and observed for mortality every day over the course of 5 days."}, "[4]": {"test_system": "Galleria mellonella larvae", "assay": "Toxicity of tested doses to Galleria mellonella larvae", "method": "as §2"}, "[5]": {"test_system": "S. aureus USA300 internalization by HaCaT cells", "assay": "S. aureus USA300 invasion (internalization) into HaCaT keratinocytes", "format": "cell-based, human", "method": "The invasion protocol was adapted from our previous papers (Nguyen et al. [2015], Tribelli et al. [2020]). About 5 × 10^5 Keratinocytes were seeded in a 24 well plate (Greiner, Frickenhausen, Germany) to attain a monolayer of ∼10^6 cells/well. Staphylococcusaureus was grown overnight at 37°C, centrifuged and suspended in invasion medium (DMEM with 10% FBS for HaCaT and K-SFM for NTERT-1 cells). The adherent keratinocytes were […], or 5 µM geldanamycin (Sigma-Aldrich, Germany) or monoclonal antibodies specific against Hsp90α (α‐Hsp90α, Abcam) for 1 h. After 1 h, 100 µl of bacterial suspension was added to each well to attain a MOI (multiplicity of infection) of 30 and incubated with cells for 1.5 h. Subsequently, the extracellular bacteria were killed with treatment of 2.5 μg/ml lysostaphin (Sigma-Aldrich, Germany) for 1.5 h. The cells were then washed, lysed, mechanically detached by scraping, diluted, and enumerated on TSA (Tryptic Soy Agar) plates to quantify the intracellular bacteria."}, "[6]": {"test_system": "phagocytosis by primary human CD14+ monocytes", "assay": "Phagocytosis of S. aureus USA300 by CD14+ monocytes", "format": "cell-based", "settings": "L15 20 µM, L13 30 µM, geldanamycin 5 µM, 60 min preincubation; MOI 30, 90 min; n = 4 donors; SEM", "method": "Peripheral Blood Mononuclear cells (PBMCs) were isolated by density gradient centrifugation following the previous study (Nguyen et al. [2022]). From the pool of PBMCs, monocytes were isolated by positive selection with anti-human CD14 microbeads (Miltenyi Biotech, Bergisch-Gladbach, Germany) following a previously reported protocol (Nguyen et al. [2022]). The purity was analysed by flow cytometry on a BD Accuri C6 (BD Biosciences, Heidelberg, Germany) with anti-human CD14-FITC, CD45-PE and propidium iodide (BD Biosciences, Heidelberg, Germany) and ranged from 85% to 98%.\nFor the phagocytosis, 10^6 CD14^+ monocytes were seeded in 1 ml of medium (RPMI supplemented with L-Glutamine and 10% FCS) in a 12 well plate (Greiner, Germany). The cells were incubated with 20 µM of L15, 30 µM of L13, or 5 µM of Geldanamycin for 60 min at 37°C and 5% CO2 before addition of bacteria. For the phagocytosis assay, bacterial cells were resuspended in 100 µl RPMI medium at MOI of 30 and incubated with monocytes for 90 min. The cells were washed once with PBS and 0.5 ml of medium supplemented with 2.5 µg/ml of Lysostaphin was added for 90 min to remove the extracellular bacteria. Then, monocytes were washed twice with PBS and resuspended in 0.5 ml of milliQ dH2O. The cells were scraped, and the lysed solution was transferred into a new 1.5 ml Eppendorf tube for a 5 min sonication (frequency 80, power 100) at room temperature to prevent the bacterial cell clumping by using ultrasonic water bath Elmasonic P (Elma Schmidbauer Gmb, Singen, Germany). About 10 µl fractions of undiluted, 10^−1, 10^−2, and 10^−3 dilutions were inoculated on tryptic soy agar (TSA) plates and incubated overnight at 37°C. The numbers of internalized bacteria were determined based on the manual counting of bacterial colony forming units (cfu) recovered on the agar plates."}, "[7]": {"test_system": "HaCaT cells", "assay": "MTT cytotoxicity in HaCaT cells", "format": "cell-based, human", "settings": "MTT, 24 h, 1–200 µM", "method": "(§3) MTT (3-(4,5-dimethylthiazol-2-yl)-2,5-diphenyl tetrazolium bromide) assay was employed to analyze the cytotoxicity of peptides and geldanamycin to the cells. 5 × 10^5 cells were seeded in a 96 flat bottom well plate and incubated for 2.5 or 24 h at 37°C with 5% CO2. The cells were then treated with increasing concentration (0 to 200 µM) of peptides or geldanamycin for 24 h. After the incubation, 10 μl of the MTT labelling reagent is added to each well to attain a final concentration 0.5 mg/ml, followed by 4 h incubation. Metabolically active cells convert the yellow tetrazolium salt to purple formazan crystals, which were solubilized using the solubilization solution (DMSO) and measured for absorbance at λmax/λref–570/690 nm (Saising et al. [2018])."}, "[8]": {"test_system": "MONO-MAC-6 (MM6) cells", "assay": "MTT cytotoxicity in MM6 cells", "format": "cell-based, human", "settings": "24 h, 1–200 µM", "method": "as §3"}, "[9]": {"test_system": "S. aureus USA300 invasion into N/TERT-1 cells", "assay": "S. aureus USA300 invasion into N/TERT-1 keratinocytes", "format": "cell-based, human", "settings": "pretreatment with L15 20 µM, L13 30 µM, geldanamycin 5 µM or α-Hsp90α antibody", "method": "The invasion protocol was adapted from our previous papers (Nguyen et al. [2015], Tribelli et al. [2020]). About 5 × 10^5 Keratinocytes were seeded in a 24 well plate (Greiner, Frickenhausen, Germany) to attain a monolayer of ∼10^6 cells/well. Staphylococcusaureus was grown overnight at 37°C, centrifuged and suspended in invasion medium (DMEM with 10% FBS for HaCaT and K-SFM for NTERT-1 cells). The adherent keratinocytes were washed with PBS and supplemented with invasion medium followed by treatment with 20 µM of L15, 30 µM of L13, or 5 µM geldanamycin (Sigma-Aldrich, Germany) or monoclonal antibodies specific against Hsp90α (α‐Hsp90α, Abcam) for 1 h. After 1 h, 100 µl of bacterial suspension was added to each well to attain a MOI (multiplicity of infection) of 30 and incubated with cells for 1.5 h. Subsequently, the extracellular bacteria were killed with treatment of 2.5 μg/ml lysostaphin (Sigma-Aldrich, Germany) for 1.5 h. The cells were then washed, lysed, mechanically detached by scraping, diluted, and enumerated on TSA (Tryptic Soy Agar) plates to quantify the intracellular bacteria."}, "[10]": {"test_system": "S. aureus USA300 infected PBMCs", "assay": "Cytokine release of S. aureus USA300 infected PBMCs (ELISA)", "format": "cell-based, human", "settings": "L15 20 µM, L13 30 µM, geldanamycin 5 µM, 20 h, vs unstimulated infected PBMCs"}, "[11]": {"test_system": "F-actin levels in N/TERT-1 cells", "assay": "F-actin measurement (ActinGreen 488 fluorescence) in N/TERT-1 cells", "format": "cell-based, human", "settings": "L15 20 µM, L13 30 µM, geldanamycin 5 µM; 1.5 h; relative to control", "method": "as §1"}},
  "data": [
    {"molecule": "EMKNNKIIL [L17, Lpl1-derived peptide]", "values": [
      {"measurement": "Relative F-actin level in HaCaT", "setting": "[1]", "result": "1.09 ± 0.20"},
      {"measurement": "Interaction with Hsp90α", "setting": "[2]", "result": "No"}
    ]},
    {"molecule": "CN[C@H](CC(C)C)C(=O)N[C@H]1C(=O)N[C@@H](CC(N)=O)C(=O)N[C@H]2C(=O)N[C@H]3C(=O)N[C@H](C(=O)N[C@H](C(=O)O)c4cc(O)cc(O)c4-c4cc3ccc4O)[C@H](O)c3ccc(c(Cl)c3)Oc3cc2cc(c3O[C@@H]2O[C@H](CO)[C@@H](O)[C@H](O)[C@H]2O[C@H]2C[C@](C)(N)[C@H](O)[C@H](C)O2)Oc2ccc(cc2Cl)[C@H]1O", "note": "[vancomycin, reference compound]", "values": [
      {"measurement": "larvae surviving on day 5, S. aureus Newman", "setting": "[3]; peptides 60 mg/kg, vancomycin 20 mg/kg, injected 1 h before 10^6 cfu, 37°C", "result": 100, "unit": "%"},
      {"measurement": "toxicity of tested doses to larvae", "setting": "[4]; peptides 60 mg/kg, geldanamycin 5 mg/kg, vancomycin 20 mg/kg", "result": "not toxic to larvae"}
    ]},
    {"molecule": "GKGNETKED [L1, Lpl1-derived peptide]", "values": [
      {"measurement": "Relative F-actin level in HaCaT", "setting": "[1]", "result": "0.95 ± 0.49"},
      {"measurement": "Interaction with Hsp90α", "setting": "[2]", "result": "No"}
    ]},
    {"molecule": "DEIVKELRSRYNISTEKSPILKMHIDGDLKGSSVGYRKLEI DFSKRENSKLSVIEFLSYKPAKK [L26, Lpl1-derived peptide that increased S. aureus internalization]", "values": [
      {"measurement": "Relative F-actin level in HaCaT", "setting": "[1]", "result": "1.25 ± 0.13"},
      {"measurement": "Interaction with Hsp90α", "setting": "[2]", "result": "Yes"},
      {"measurement": "increase of invasion into HaCaT", "setting": "[5]; positive control peptides, S. aureus USA300", "result": "approximately 1.5 fold"}
    ]},
    {"molecule": "COC1=C2C[C@@H](C)C[C@H](OC)[C@H](O)[C@@H](C)/C=C(\\C)[C@H](OC(N)=O)[C@@H](OC)/C=C\\C=C(/C)C(=O)NC(=CC1=O)C2=O", "note": "[Geldanamycin, geldanamycin, reference compound]", "values": [
      {"measurement": "decrease of phagocytosis of S. aureus into CD14+ monocytes", "setting": "[6]", "result": "no significant impact"},
      {"measurement": "concentration from which viability decreased gradually, HaCaT", "setting": "[7]", "result": "≥ 50", "unit": "µM"},
      {"measurement": "concentration from which viability decreased, MM6", "setting": "[8]", "result": "≥ 10", "unit": "µM"},
      {"measurement": "Relative F-actin level in HaCaT", "setting": "[1]", "result": "0.88 ± 0.03"},
      {"measurement": "effect on survival of infected larvae", "setting": "[3]; geldanamycin 5 mg/kg 1 h before infection, strain not restated in the sentence", "result": "no or rather a negative effect on survival"},
      {"measurement": "invasion of S. aureus USA300 into N/TERT-1 cells", "setting": "[9]", "result": "reduced USA300 invasion"},
      {"measurement": "TNF-alpha production of infected PBMCs", "setting": "[10]; n = 4", "result": "inhibited"},
      {"measurement": "IL-6 production of infected PBMCs", "setting": "[10]; n = 5", "result": "inhibited"},
      {"measurement": "relative F-actin content in N/TERT-1 cells", "setting": "[11]", "result": "0.82 ± 0.03"},
      {"measurement": "decrease in uptake/invasion of S. aureus USA300 by HaCaT cells compared to untreated control", "setting": "[5]; preincubation with L15 20 µM, L13 30 µM, geldanamycin 5 µM or α-Hsp90α antibody, MOI 30", "result": "approximately 75%"},
      {"measurement": "toxicity of tested doses to larvae", "setting": "[4]; in vivo", "result": "not toxic to larvae"}
    ]},
    {"molecule": "NKPGEL [L8, Lpl1-derived peptide]", "values": [
      {"measurement": "Relative F-actin level in HaCaT", "setting": "[1]", "result": "0.96 ± 0.05"},
      {"measurement": "Interaction with Hsp90α", "setting": "[2]", "result": "No"}
    ]}
  ]
}
